Source: PubChem BioAssay (NCI)
Where “and” joins values, the source holds several entries; their conditions need not be identical. Equal entries are not always repeated.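 How tested: cells in 96-well plates exposed to compound for 48 hours at five concentrations. Abbreviation: GI50, concentration required for 50% inhibition of growth. TGI is the concentration that stops growth completely.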

Key:
Assay in all cases: NCI tumour cell line growth inhibition, 48 h
[1] = test system: MDA-N
[2] = test system: DMS 114 small cell lung
[3] = test system: DLD-1 colon
[4] = test system: RXF-631 renal
[5] = test system: XF 498 CNS
[6] = test system: HOP-18 NSCLC
[7] = test system: KM20L2 colon
[8] = test system: SNB-78 CNS
[9] = test system: M19-MEL melanoma
[10] = test system: P388 leukemia

SMILES | TGI [1] | TGI [2] [µM] | TGI [3] | TGI [4] [µM] | TGI [5] [µM] | TGI [6] [µM] | TGI [7] [µM] | TGI [8] [µM] | TGI [9] [µM] | other results
CCC(=O)Nc1ncnc2ncn(C(=O)CC)c12 | > 100 µM | – | – | – | – | – | – | – | – | –
CC(C)=CCC/C(C)=C/CC/C(C)=C/C1CCC(=O)C1(C)C (stereo not given) | – | 28.2 | 32.6 µM | > 100 | 32.3 | 63.1 | 31.9 | 53.4 | 38 | –
OCCCCCNc1ccnc2cc(Cl)ccc12 | – | > 100 | > 100 µM | – | > 100 | > 100 | > 100 | > 100 | > 100 | –
COc1ccc2c(c1OC)C(C=C(c1ccccc1)c1ccccc1)CN(C)C2 (stereo not given) | – | 29.3 | 76.8 µM | 66.4 | – | 67.7 | 35.5 | > 100 | 81 | –
CSC1SCC2C(=O)N(C)C(C(C)C)C(=O)OCC(NC(=O)c3cnc4ccccc4n3)C(=O)NC(C)C(=O)N(C)C1C(=O)N(C)C(C(C)C)C(=O)OCC(NC(=O)c1cnc3ccccc3n1)C(=O)NC(C)C(=O)N2C (stereo not given) | – | 8.38e-06 | 1.08 µM and 5.93 µM | – | 5.67e-05 | – | – | – | – | GI50 [2]: 0.00345 nM; GI50 [10]: 4.99 pM; GI50 [3]: 1.84e-05 µM; GI50 [5]: 0.0306 nM; GI50 [6]: 0.00966 nM; GI50 [7]: 5.29e-06 µM; GI50 [8]: 8.96e-07 µM
COc1c(Cl)[c]([Hg][O]C(C)=O)c(NCC(C)=O)c(OC)[c]1[Hg][O]C(C)=O | – | 26.9 | 26.8 µM | 3.88 | – | – | > 100 | 43.2 | 30.1 | GI50 [2]: 4120 nM; GI50 [3]: 12.2 µM; GI50 [4]: 1.22 µM; GI50 [7]: 28.3 µM; GI50 [8]: 15.9 µM; GI50 [9]: 14.8 µM
CC(C)(C)C1CCC(=O)C(C(O)CC2CC(=O)N(c3ccccc3)C(=O)C2)C1 (stereo not given) | – | > 100 | > 100 µM | > 100 | > 100 | > 100 | > 100 | > 100 | > 100 | –
O=C(O)CNC(=O)C1NC(C(F)(F)F)(C(F)(F)F)OC1(C(F)(F)F)C(F)(F)F (stereo not given) | > 100 µM | – | – | – | – | – | – | – | – | –
CCCCCCC(O)C(O)CCC(O)C1CCC(CCCCC(O)CC2=CC(C)OC2=O)O1 (stereo not given) | 29.1 µM | – | – | – | – | – | – | – | – | GI50 [1]: 12.3 µM
CC(C)C1NC(=O)[C@H](C)OC(=O)[C@@H](C(C)C)NC(=O)[C@@H](C)OC(=O)C(C(C)C)NC(=O)[C@H](C)OC1=O (stereo not given in full) | – | > 100 | > 100 µM | – | > 100 | > 100 | > 100 | > 100 | > 100 | –
CNC(=S)N(C1CCCCC1)C1CCCCC1 | > 100 µM | – | – | – | – | – | – | – | – | –
S=C1SCN(C2CCCCCCCCCCC2)CN1C1CCCCCCCCCCC1 | > 100 µM | – | – | – | – | – | – | – | – | –
CC(=O)OC1(C#N)CC2OC1C1N=NN(C(=O)OC(C)(C)C)C21 (stereo not given) | – | > 74.9 | > 31.6 µM | – | > 100 | > 100 | > 100 | > 77 | > 100 | –
[N-]=[N+]=NC1C2CC3CC(C2)CC1C3 (stereo not given) | – | > 100 | – | > 100 | – | > 100 | > 100 | > 100 | > 100 | –
CCC(C)(C)NS(=O)(=O)c1ccccc1 | – | > 100 | > 100 µM | – | > 100 | – | > 100 | > 100 | > 100 | –
C[C@H](C(O)CC(=O)C(C)(C)O)[C@H]1CC[C@@]2(C)[C@@H]3CC[C@H]4C(C)(C)[C@@H](OC5OC(COC6OC(CO)C(O)C(O)C6O)C(O)C(O)C5O)CC[C@]4(C)C3=CC[C@]12C (stereo not given in full) | > 100 µM | – | – | – | – | – | – | – | – | –
CC1(C)Oc2ccccc2[N+]([O-])=C1c1ccccc1 | – | > 100 | > 100 µM | > 100 | – | – | > 100 | > 100 | > 100 | –
Cc1nc(-n2nc(-c3ccccc3)cc2-c2ccccc2)sc1C(=O)/C=C/c1ccc(Cl)cc1 | – | 28.3 | 26.8 µM | – | – | 29.6 | 77.6 | > 100 | 39.6 | –
C/C(=N\NS(=O)(=O)c1c(C)cc(C)cc1C)c1ccc[n+]([O-])n1 | – | 36.8 | 21 µM | 93 | – | 47.3 | 54.6 | 68.3 | 29 | –
N#CC(C(=O)O)C(c1c(Cl)cccc1Cl)C(C#N)C(=O)O (stereo not given) | > 100 µM | – | – | – | – | – | – | – | – | –
COc1ccc(C[C@H]2NC[C@H](O)[C@H]2OC(C)=O)cc1 | 0.195 µM | – | – | – | – | – | – | – | – | –
COC(=O)C1=C(O)c2cc3c(cc2[C@H](c2cc(OC)c(OC)c(OC)c2)C1)OCO3 | – | > 100 | > 100 µM | > 100 | > 100 | > 100 | > 100 | > 100 | 10.1 | –
COC(=O)c1ccc(/C=C/S(=O)(=O)c2ccccc2)cc1 | – | > 100 | > 100 µM | > 100 | > 100 | – | > 100 | > 100 | > 100 | –
CC1(C)OC2COC(c3[nH]nc4c(=O)[nH]c(=O)[nH]c34)C2O1 (stereo not given) | > 100 µM | – | – | – | – | – | – | – | – | –
CCOc1ccc(N=Cc2ccc3ccccc3n2)cc1 | – | – | > 100 µM | > 100 | > 100 | > 100 | > 100 | > 100 | > 100 | –

SMILES | TGI [1] | TGI [2] [µM] | TGI [3] | TGI [4] [µM] | TGI [5] [µM] | TGI [6] [µM] | TGI [7] [µM] | TGI [8] [µM] | TGI [9] [µM] | other results
Cc1ccc(-c2cc(=O)c3cc(C)c(C)c(C(=O)O)c3o2)cc1[N+](=O)[O-] | – | > 100 | > 100 µM | – | – | > 100 | > 100 | > 100 | > 100 | –
CCCCCCC/C=C1\CCC(CN(C)C)C1=O (stereo not given) | 26.8 µM | – | 20.9 µM | > 71.4 | 35.4 | 31.4 | 34.6 | 35.8 | – | –
CN(C)C1C(=O)C(C(N)=O)=C(O)C2(O)C(=O)C3=C(O)c4c(O)cccc4C(C)(O)C3CC12 (stereo not given) | 38.9 µM and > 100 µM | – | – | – | – | – | – | – | – | GI50 [1]: 17.8 µM and > 100 µM
CCN(CC)/[N+]([O-])=N/OCC(C)O (stereo not given) | – | > 100 | – | > 100 | > 100 | – | – | > 100 | > 100 | –
CN[C@H]1CC[C@]23C[C@]24CC[C@]2(C)[C@@H]([C@H](C)N(C)C)CC[C@@]2(C)[C@@H]4CC[C@H]3C1(C)C | 29.2 µM | – | – | – | – | – | – | – | – | –
N/C(=N\N=C\c1ccc(O)c(O)c1)NO | – | > 100 | > 100 µM | > 100 | > 100 | > 100 | > 100 | > 100 | > 100 | –
CC(CCC(=O)O)c1ccc(Br)cc1 (stereo not given) | – | > 100 | > 100 µM | – | – | > 100 | > 100 | > 100 | > 100 | –
Clc1ccc(COC(Cn2ccnc2)c2ccc(Cl)cc2Cl)c(Cl)c1 (stereo not given) | 17.5 µM and 15.6 µM | – | – | – | – | – | – | – | – | –
CCOC(=O)C(=O)C(/C(=N/N(C)C)C(=O)Nc1ccc(C)cc1C)c1nc2ccccc2[nH]c1=O (stereo not given) | > 100 µM | – | – | – | – | – | – | – | – | –
O=C(CC1SC(=Nc2ccccc2Cl)NC1=O)Nc1ccc(Cl)cc1 (stereo not given) | – | > 100 | > 100 µM | – | – | – | > 100 | > 100 | > 100 | –
C/C=C(\C)C(=O)N1c2ccccc2CC1c1c(C)[nH]c2ccccc12 (stereo not given) | – | – | > 100 µM | > 100 | – | – | > 100 | > 100 | > 100 | –
Fc1ccc2c(c1)cc1ccc3cccc4ccc2c1c34 | – | > 100 | > 100 µM | > 100 | > 100 | > 100 | > 100 | > 100 | > 100 | –
CCOC(=O)NC(=O)c1cn(C2OC(COC(=O)CCCCCCCCC(=O)OCC3OC(n4cc(C(=O)NC(=O)OCC)c(=O)[nH]c4=O)C4OC(C)(C)OC34)C3OC(C)(C)OC32)c(=O)[nH]c1=O (stereo not given) | – | > 100 | > 100 µM | > 100 | > 100 | > 100 | > 100 | > 100 | 86.2 | –
COc1cc(=O)oc(/C=C/C=C/C=C/C(C)=C\C2(C)OC(C)C(C)(O)C2O)c1C (stereo not given) | > 100 µM | – | – | – | – | – | – | – | – | –
CC1=CC2=C(C#N)C(=O)OC2(C)C(c2ccccc2)C1 (stereo not given) | > 100 µM | – | – | – | – | – | – | – | – | –
CCCCCN(CCCCC)C(=O)[C@H](CCC(=O)OCc1ccccc1)NC(=O)c1cc2ccccc2[nH]1 | – | > 100 | > 100 µM | > 100 | – | > 100 | > 100 | > 100 | – | –
NC(N)=NC(N)=Nc1ccc(S(N)(=O)=O)cc1 | > 100 µM | – | – | – | – | – | – | – | – | –
CN=C(N)NC | – | > 100 | > 100 µM | – | > 100 | > 100 | > 100 | > 100 | > 100 | –
CC(C)Cc1ccc(C(C)/C=C2\CCC(CN3CCCCC3)C2=O)cc1 (stereo not given) | 12.8 µM | 4.78 | 5.13 µM | – | 16 | 30.6 | 29.1 | 35.1 | 6.08 | –
N.N.NCCCCCN.O=C([O-])CC(=O)[O-].O=C([O-])CC(=O)[O-].[Pt+4].[Pt+4] | – | – | > 100 µM | – | – | > 100 | > 100 | – | – | GI50 [3]: > 100 µM; GI50 [6]: > 100000 nM; GI50 [7]: > 100 µM
CCC1(N)C(=O)OCc2c1cc1n(c2=O)Cc2cc3ccccc3nc2-1 (stereo not given) | > 100 µM | – | – | – | – | – | – | – | – | GI50 [1]: 21.8 µM
CCN(CC)CCC(=O)N1C/C(=C/c2ccccc2)C(=O)/C(=C\c2ccccc2)C1 | 2.45 µM | 4.54 | 2.82 µM | – | 7.57 | 9.19 | 3.5 | – | 3.68 | –
Cn1cc2ccccc2c1-c1nc(F)nc(Nc2ccc(N)cc2)n1 | – | 38.1 | 34.9 µM | 38.2 | 30 | – | 47.4 | 77.7 | 25.2 | –
CC(=O)Oc1cc(Cl)c(OC(C)=O)c2c(OC(C)=O)c(C)c(O[Si](C)(C)C(C)(C)C)cc12 | – | 15.1 | 3.92 µM | – | 32.8 | – | 32.1 | 9.82 | – | –
Nc1nc(CC2(O)CCCCC2)cc(-c2ccccc2)n1 | – | > 70.6 | > 100 µM | > 100 | – | > 90 | > 53.7 | > 100 | > 72.8 | –
